Among the data in ChEMBL document CHEMBL1165855, “Guaiane sesquiterpenes from seaweed Ulva fasciata Delile and their antibacterial properties” (2010) are zone of inhibition and MIC values, retold here.

Structures are written as SMILES. ≈ marks a conversion by molar mass, not a printed value.

Common to all, as to assay type: functional
For assay [1], the system named is Vibrio parahaemolyticus. The experiment in a line: Antibacterial activity against Vibrio parahaemolyticus ATCC 17809 at 150 ug/ml after 24 hrs by disc-diffusion assay. The following applies: ATCC 17809, 24 h, read-out: DIZ. For orientation: A growth-free zone around the sample is the usual read-out of agar diffusion tests.
In assay [2] the test system is Vibrio vulnificus. The assay can be described thus: Antibacterial activity against Vibrio vulnificus MTCC 1145 after 24 hrs by broth microdilution assay. The following applies: MTCC 1145, 24 h. (In general: Dilution methods test growth across graded concentrations, often in twofold steps.)
Assay [3] has as its system Vibrio harveyi. The assay can be described thus: Antibacterial activity against Vibrio harveyi MTCC 3438 at 150 ug/ml after 24 hrs by disc-diffusion assay. The following applies: MTCC 3438, 24 h, read-out: DIZ.
For assay [4], the system named is Vibrio parahaemolyticus. The experiment in a line: Antibacterial activity against Vibrio parahaemolyticus ATCC 17809 at 50 ug/ml after 24 hrs by disc-diffusion assay. Conditions: ATCC 17809, 24 h, read-out: DIZ.
Assay [5] deals with Vibrio vulnificus. The assay can be described thus: Antibacterial activity against Vibrio vulnificus MTCC 1145 at 50 ug/ml after 24 hrs by disc-diffusion assay. Conditions: MTCC 1145, 24 h, read-out: DIZ.
For assay [6], the system named is Vibrio harveyi. The assay can be described thus: Antibacterial activity against Vibrio harveyi MTCC 3438 at 50 ug/ml after 24 hrs by disc-diffusion assay. The following applies: MTCC 3438, 24 h, read-out: DIZ.
For assay [7], the system named is Vibrio parahaemolyticus. The experiment in a line: Antibacterial activity against Vibrio parahaemolyticus ATCC 17809 at 100 ug/ml after 24 hrs by disc-diffusion assay. Conditions: ATCC 17809, 24 h, read-out: DIZ.
In assay [8] the test system is Vibrio harveyi. The assay can be described thus: Antibacterial activity against Vibrio harveyi MTCC 3438 after 24 hrs by broth microdilution assay. The following applies: MTCC 3438, 24 h.
The subject of assay [9] is Vibrio parahaemolyticus. The assay can be described thus: Antibacterial activity against Vibrio parahaemolyticus ATCC 17809 after 24 hrs by broth microdilution assay. Conditions: ATCC 17809, 24 h.
Assay [10] relates to Vibrio vulnificus. The experiment in a line: Antibacterial activity against Vibrio vulnificus MTCC 1145 at 100 ug/ml after 24 hrs by disc-diffusion assay. The following applies: MTCC 1145, 24 h, read-out: DIZ.
The subject of assay [11] is Vibrio harveyi. The assay can be described thus: Antibacterial activity against Vibrio harveyi MTCC 3438 at 100 ug/ml after 24 hrs by disc-diffusion assay. The following applies: MTCC 3438, 24 h, read-out: DIZ.
The test system of assay [12] is Vibrio vulnificus. The experiment in a line: Antibacterial activity against Vibrio vulnificus MTCC 1145 at 150 ug/ml after 24 hrs by disc-diffusion assay. The following applies: MTCC 1145, 24 h, read-out: DIZ.

One may read the MIC as the smallest concentration in the dilution series that meets the test's criterion for growth inhibition. A low value points to greater potency. Take `CC[C@H]1CCC[C@@](C)(COC(C)=O)[C@H]2C=C[C@H](C)[C@@H]12`: the zone of inhibition at 150 µg/mL was found to be 16.6 mm with Vibrio parahaemolyticus [1], 12.6 mm in the assay with Vibrio harveyi [3] and 15.1 mm in the assay on Vibrio vulnificus [12]. Further, the MIC with Vibrio vulnificus [2] turned out to be 25 µg/mL (≈ 94.6 µM); in the assay on Vibrio harveyi [8], 30 µg/mL (≈ 113 µM); against Vibrio parahaemolyticus [9], 25 µg/mL (≈ 94.6 µM). Besides, the zone of inhibition at 50 µg/mL is 15.3 mm in the assay with Vibrio parahaemolyticus [4], 14.1 mm with Vibrio vulnificus [5] and 11.7 mm with Vibrio harveyi [6]. For the same compound, the zone of inhibition at 100 µg/mL in the assay with Vibrio parahaemolyticus [7] was 15.8 mm; in the assay on Vibrio vulnificus [10] it was 14.9 mm; in the assay with Vibrio harveyi [11] it was 12.3 mm.

In the case of `CC[C@H]1CCC[C@@](C)(CO)[C@H]2C=C[C@H](C)[C@@H]12`, the zone of inhibition at 150 µg/mL in the assay with Vibrio parahaemolyticus [1] is 13.2 mm; with Vibrio harveyi [3], 12.9 mm; with Vibrio vulnificus [12] it was 12.4 mm. For the same compound, the MIC amounted to 40 µg/mL (≈ 180 µM) in the assay with Vibrio vulnificus [2], 50 µg/mL (≈ 225 µM) against Vibrio harveyi [8] and 35 µg/mL (≈ 157 µM) with Vibrio parahaemolyticus [9]. Moreover, the zone of inhibition at 50 µg/mL in the assay with Vibrio parahaemolyticus [4] was 12.7 mm; in the assay with Vibrio vulnificus [5], 11.7 mm; in the assay with Vibrio harveyi [6], 10.6 mm. In addition, the results for the zone of inhibition at 100 µg/mL with Vibrio parahaemolyticus [7], in the assay on Vibrio vulnificus [10] and in the assay on Vibrio harveyi [11] were 12.9 mm, 12 mm and 11.7 mm, respectively.

For the compound `CC(C)[C@H]1CCC[C@@](C)(O)[C@H]2C=C[C@H](C)[C@@H]12`, the zone of inhibition at 150 µg/mL in the assay on Vibrio parahaemolyticus [1] turned out to be 7.28 mm; in the assay with Vibrio harveyi [3] it was 6.6 mm; in the assay on Vibrio vulnificus [12], 7.85 mm. The MIC in the assay on Vibrio vulnificus [2] came out at 125 µg/mL (≈ 562 µM); in the assay on Vibrio harveyi [8], 160 µg/mL (≈ 720 µM); with Vibrio parahaemolyticus [9] it was 110 µg/mL (≈ 495 µM). The zone of inhibition at 50 µg/mL in the assay with Vibrio parahaemolyticus [4] turned out to be 6.83 mm; with Vibrio vulnificus [5] it was 7.15 mm; with Vibrio harveyi [6], 6.54 mm. Besides, the values for the zone of inhibition at 100 µg/mL in the assay on Vibrio parahaemolyticus [7], in the assay on Vibrio vulnificus [10] and in the assay on Vibrio harveyi [11] were 6.92 mm, 7.3 mm and 6.58 mm, respectively.
